Measured values reported in patent US8629163B2, “Tetrakis-quaternary ammonium salts and methods for modulating neuronal nicotinic acteylcholine receptors” (University of Kentucky Research Foundation, priority 2007, dated 2014).

Key:
[1] = biological target: T1, α4β2 neuronal nicotinic acetylcholine receptors (Rattus norvegicus, UniProt P09483+P12390); assay: Inhibition of [^3H]nicotine (NIC) binding to rat brain membranes; conditions: % inhibition at 100 nM analog; 3 nM [^3H]NIC; nonspecific 10 μM cytisine; 3-4 independent experiments
T1 construct: The brain tissue was homogenized with a Tekmar Polytron; from tissue; host or cells: rat brain membranes (whole brain without cortex and cerebellum)
Protocol: (§1) Rat brain was dissected into the whole brain tissue without cortex and cerebellum and was frozen in liquid nitrogen and stored at −70° C. until use. The brain tissue was homogenized with a Tekmar Polytron (setting 40) in 20 volumes of ice-cold hypotonic buffer (2 mM HEPES, 14.4 mM NaCl, 0.15 mM KCl, 0.2 mM CaCl2 and […], pH=7.5). The homogenate was centrifuged at 25,000×g for 17 minutes at 4° C. The pellet was resuspended in 20 volumes of the same buffer, and incubated for 10 min at 37° C. The resuspension was cooled to 4° C. and then centrifuged at the above parameters. The pellet was resuspended by sonicaton and centrifuged using the same conditions. The final pellet was stored at −20° C. under 10 ml of the incubation buffer and was suspended just before incubation with radioligand.
(§2) The binding of [^3H]NIC and [^3H]MLA to probe α4β2 and α7-type neuronal nicotinic acetylcholine receptors, respectively, was determined using [^3H]NIC (67 Ci/mmol) and [^3H]MLA (60 Ci/mmol), purchased from Perkin Elmer Life Sciences, Boston, Mass., U.S.A. and American Radiolabel Chemicals, Inc., St. Louis, Mo., U.S.A. Binding was performed in duplicate, in a final volume of 250 μl of the incubation medium, containing 20 mM HEPES, 144 mM NaCl, 1.5 mM KCl, 2 mM CaCl2, and 1 mM MgSO4, pH=7.5. Reaction was initiated by the addition of 100 μL of membrane suspension to the samples containing a desired concentration of test compounds and 3 nM [^3H]NIC or 3 nM [^3H]MLA (final concentrations) and incubated for 60 min at room temperature. Total binding was measured in the absence of unlabelled ligand and nonspecific binding was determined in the presence of 10 μM cytisine, for [^3H]NIC binding, and 10 μM nicotine for [^3H]MLA. The binding reaction was terminated by dilution of samples with 3 mL of ice-cold incubation buffer followed by immediate filtration through Unifilter-96 GFB-filter plates presoaked in 0.5% polyethylenimine using a Filtermate Harvester (Perkin Elmer, Shelton, Conn., U.S.A.). Filters were rinsed five times with 350 μL of ice-cold buffer, and then filter plates were dried at 48° C. for 60 min, bottom sealed and each well filled with 40 μL of Packard Microscint-20 cocktail. After 60 min of gentle shaking, the filter plates were top sealed and radioactivity measured using a Packard TopCount NXT scintillation counter. CPMs were processed through a Packard Windows NT operating system. Protein was measured using the Bradford dye-binding procedure with bovine serum albumin as the standard.
(§3) The ability of a probe concentration of 100 nM of the tetrakis-quaternary ammonium salts to inhibit specific binding was evaluated.
(§4) ^aData are % inhibition at 100 nM concentration of analog for 3-4 independent experiments. Specific binding in the [^3H]NIC binding assay is calculated as the difference between the total binding of 3 nM [^3H]NIC and nonspecific binding in the presence of 10 μM cytisine. Specific binding for the [^3H]MLA binding assay is calculated as the difference between the total binding of 3 nM [^3H]MLA to the receptors alone and its nonspecific binding in the presence of 10 μM nicotine. Analog-induced inhibition of nicotine-evoked [^3H]DA release is calculated as a percent of that in the absence of analog.

[2] = biological target: T2, α7-type neuronal nicotinic acetylcholine receptors (Rattus norvegicus, UniProt Q05941); assay: Inhibition of [^3H]methyllycaconitine (MLA) binding to rat brain membranes; conditions: % inhibition at 100 nM analog; 3 nM [^3H]MLA; nonspecific 10 μM nicotine; 3-4 independent experiments
T2 construct: The brain tissue was homogenized with a Tekmar Polytron; from tissue; host or cells: rat brain membranes (whole brain without cortex and cerebellum)
Protocol: as §1, §2, §3, §4

rat striatal slices = assay: Nicotine-evoked [^3H]dopamine release (overflow) from superfused rat striatal slices; format: cell-based; conditions: for inhibition at 0.1 µM: % inhibition at 100 nM analog, 10 μM S(-)nicotine, rat striatal slices, read-out: Inhibition of Nicotine-evoked [^3H]DA release; for IC50: Rattus norvegicus, full concentration response assay, 4-5 independent experiments in duplicate, 10 μM nicotine, read-out: IC50, inhibition of nicotine-evoked [^3H]DA release (converted)
Protocol: Rat striatal slices (500 μm thickness, 6 mg wet weight) were incubated for 30 minutes in Krebs buffer (118 mM NaCl, 4.7 mM KCl, 1.2 mM MgCl2, 1.0 mM NaH2PO4, 1.3 mM CaCl2, 11.1 mM glucose, 25 mM NaHCO3, 0.11 mM L-ascorbic acid, and 0.004 mM disodium EDTA; pH 7.4, and saturated with 95% O2/5% CO2) in a metabolic shaker at 34° C. Slices were rinsed with 15 mL of fresh buffer and incubated for an additional 30 minutes in fresh buffer containing 0.1 μM [^3H]dopamine (DA; 6 slices/3 mL). Subsequently, slices were rinsed with 15 mL of fresh buffer and each slice transferred to a superfusion chamber. Slices were superfused (0.6 mL/min) for 60 minutes with Krebs buffer containing nomifensine (10 μM) and pargyline (10 μM) and maintained at 34° C., pH 7.4, with continual aeration (95% O2/5% CO2). Two 4-minute samples (2.4 mL each) were collected to determine basal outflow of [^3H]DA. Slices were superfused for 36 min following addition of the analogs to the superfusion buffer after the collection of the second sample and nine 4-minute samples were collected. For initial probe assays, the concentration of analog was 100 nM. For concentration-response studies, the concentration of analog varied from 1 nM to 10 μM, and the effect of each concentration was determined using striatal slices obtained from an individual animal (repeated measures design). Subsequently, S(−)nicotine (10 μM) was added to the buffer and nine additional 4-minute samples were collected. At the end of the experiment, each slice was solubilized and the [^3H] content of the tissue determined.
Radioactivity in the superfusate and tissue samples was determined by liquid scintillation spectroscopy. Fractional release for tritium collected in each sample was divided by the total tritium present in the tissue at the time of sample collection and was expressed as a percentage of total tritium. Basal [^3H]outflow was calculated from the average of the tritium collected in the two […] samples just before addition of the analog. The sum of the increase in collected tritium resulting from either exposure to the test compound or exposure to S(−)nicotine in the absence and presence of the test compound equaled total [^3H]overflow. [^3H]Overflow was calculated by subtracting the [^3H]outflow during an equivalent period of prestimulation from the values in samples collected during and after drug exposure. Inasmuch as the radiolabelled compounds were not separated and identified, the tritium collected in superfusate is referred to as either [^3H]outflow or [^3H]overflow, rather than as [^3H]DA. [^3H]Overflow primarily represents [^3H]DA in the presence of nomifensine and pargyline in the superfusion buffer. […]
Analogs were also evaluated for their ability to inhibit NIC evoked [^3H]DA release. Antagonist activity was evaluated by comparing the NIC-evoked [^3H]overflow in the absence and presence of the analogs (see Table 1). […] Data are expressed as M±SEM. Control represents absence of compound. N=4/analog, *p<0.05
as §4
^bIC50 from full concentration response assay; data from 4-5 independent experiments, each performed in duplicate.

T2 sequence (Q05941 23-502): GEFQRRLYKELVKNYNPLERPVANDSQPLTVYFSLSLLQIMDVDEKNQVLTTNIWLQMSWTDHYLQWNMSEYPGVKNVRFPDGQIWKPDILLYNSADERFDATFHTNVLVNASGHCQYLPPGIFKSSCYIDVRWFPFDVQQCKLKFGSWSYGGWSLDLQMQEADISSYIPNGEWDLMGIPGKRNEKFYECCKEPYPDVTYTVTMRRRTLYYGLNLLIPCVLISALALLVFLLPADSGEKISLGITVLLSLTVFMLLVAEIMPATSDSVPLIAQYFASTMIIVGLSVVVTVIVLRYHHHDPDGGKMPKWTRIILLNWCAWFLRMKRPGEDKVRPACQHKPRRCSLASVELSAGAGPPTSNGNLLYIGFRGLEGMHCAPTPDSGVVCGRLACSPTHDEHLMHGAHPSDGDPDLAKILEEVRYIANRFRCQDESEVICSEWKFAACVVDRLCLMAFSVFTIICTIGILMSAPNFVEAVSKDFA
T1 sequence (P09483 31-630): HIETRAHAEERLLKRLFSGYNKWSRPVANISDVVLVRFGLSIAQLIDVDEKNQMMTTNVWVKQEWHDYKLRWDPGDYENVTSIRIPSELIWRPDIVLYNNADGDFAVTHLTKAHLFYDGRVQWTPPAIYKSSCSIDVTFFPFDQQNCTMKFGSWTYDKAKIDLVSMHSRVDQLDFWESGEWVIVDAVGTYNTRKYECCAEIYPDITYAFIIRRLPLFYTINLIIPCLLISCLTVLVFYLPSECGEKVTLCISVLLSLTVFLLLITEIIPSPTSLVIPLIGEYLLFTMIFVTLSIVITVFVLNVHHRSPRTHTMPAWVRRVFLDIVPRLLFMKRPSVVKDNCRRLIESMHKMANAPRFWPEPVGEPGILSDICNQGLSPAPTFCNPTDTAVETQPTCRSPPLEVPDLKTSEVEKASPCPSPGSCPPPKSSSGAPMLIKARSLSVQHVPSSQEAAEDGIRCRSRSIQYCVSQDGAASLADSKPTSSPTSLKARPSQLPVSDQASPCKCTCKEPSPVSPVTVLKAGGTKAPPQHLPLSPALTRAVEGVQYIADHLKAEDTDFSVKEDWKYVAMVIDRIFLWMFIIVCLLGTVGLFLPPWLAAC
T1 sequence (P12390 25-500): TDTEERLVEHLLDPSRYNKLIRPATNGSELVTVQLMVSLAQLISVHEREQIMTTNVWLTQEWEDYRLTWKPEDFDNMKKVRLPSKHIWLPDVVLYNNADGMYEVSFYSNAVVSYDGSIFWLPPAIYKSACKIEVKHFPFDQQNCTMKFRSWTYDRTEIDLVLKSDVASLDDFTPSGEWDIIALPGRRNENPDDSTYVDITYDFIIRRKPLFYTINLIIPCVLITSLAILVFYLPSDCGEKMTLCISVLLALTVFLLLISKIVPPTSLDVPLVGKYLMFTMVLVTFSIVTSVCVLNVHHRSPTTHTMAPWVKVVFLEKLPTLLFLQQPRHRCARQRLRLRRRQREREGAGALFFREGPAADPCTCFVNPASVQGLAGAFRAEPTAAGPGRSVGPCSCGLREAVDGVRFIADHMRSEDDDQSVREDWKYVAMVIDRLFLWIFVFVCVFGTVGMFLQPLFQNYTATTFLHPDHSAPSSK

| Compound | Inhibition of [^3H]Nicotine binding [1] [%] | Inhibition of [^3H]MLA binding [2] [%] | inhibition at 0.1 µM (rat striatal slices) [%] | IC50 (rat striatal slices) [nM] |
| --- | --- | --- | --- | --- |
| C(#Cc1cc(C#CCCC[n+]2cccc(Cc3ccccc3)c2)c(C#CCCC[n+]2cccc(Cc3ccccc3)c2)cc1C#CCCC[n+]1cccc(Cc2ccccc2)c1)CCC[n+]1cccc(Cc2ccccc2)c1.[Br-].[Br-].[Br-].[Br-] | 2.9 ± 2.9 | 53 ± 3.5 | 17 ± 17 | – |
| Cc1ccc[n+](CCCCCc2cc(CCCCC[n+]3cccc(C)c3)c(CCCCC[n+]3cccc(C)c3)cc2CCCCC[n+]2cccc(C)c2)c1.[Br-].[Br-].[Br-].[Br-] | 12 ± 4.4 | 12 ± 6.9 | 8 ± 4 | – |
| C(#Cc1cc(C#CCCC[n+]2cccc(-c3ccccc3)c2)c(C#CCCC[n+]2cccc(-c3ccccc3)c2)cc1C#CCCC[n+]1cccc(-c2ccccc2)c1)CCC[n+]1cccc(-c2ccccc2)c1.[Br-].[Br-].[Br-].[Br-] | 0.3 ± 0.3 | 53 ± 0.8 | 37 ± 15 | – |
| CN1CCCC1c1ccc[n+](CCCCCc2cc(CCCCC[n+]3cccc(C4CCCN4C)c3)c(CCCCC[n+]3cccc(C4CCCN4C)c3)cc2CCCCC[n+]2cccc(C3CCCN3C)c2)c1.[Br-].[Br-].[Br-].[Br-] (stereo not shown) | 7.4 ± 4.7 | 26 ± 14 | 43 ± 21 | – |
| Cc1ccc[n+](CCCC#Cc2cc(C#CCCC[n+]3cccc(C)c3)c(C#CCCC[n+]3cccc(C)c3)cc2C#CCCC[n+]2cccc(C)c2)c1.[Br-].[Br-].[Br-].[Br-] | 11 ± 11 | 18 ± 7.8 | 16 ± 13 | – |
| [Br-].[Br-].[Br-].[Br-].c1ccc2c[n+](CCCCCc3cc(CCCCC[n+]4ccc5ccccc5c4)c(CCCCC[n+]4ccc5ccccc5c4)cc3CCCCC[n+]3ccc4ccccc4c3)ccc2c1 | 6.5 ± 6.5 | 24 ± 13 | 63 ± 12 | 56 |
| C(#Cc1cc(C#CCCC[n+]2ccc3c(c2)CCCC3)c(C#CCCC[n+]2ccc3c(c2)CCCC3)cc1C#CCCC[n+]1ccc2c(c1)CCCC2)CCC[n+]1ccc2c(c1)CCCC2.[Br-].[Br-].[Br-].[Br-] | 9.7 ± 9.7 | 17 ± 8.9 | 24 ± 14 | – |
| Cc1cc(C)c[n+](CCCC#Cc2cc(C#CCCC[n+]3cc(C)cc(C)c3)c(C#CCCC[n+]3cc(C)cc(C)c3)cc2C#CCCC[n+]2cc(C)cc(C)c2)c1.[Br-].[Br-].[Br-].[Br-] | 0 ± 05 | 3.9 ± 3.9 | 12 ± 5 | – |
| Cc1cc(C)c[n+](CCCCCc2cc(CCCCC[n+]3cc(C)cc(C)c3)c(CCCCC[n+]3cc(C)cc(C)c3)cc2CCCCC[n+]2cc(C)cc(C)c2)c1.[Br-].[Br-].[Br-].[Br-] | 3.7 ± 3.7 | 15 ± 8 | 45 ± 14 | – |
| Cc1cc[n+](CCCCCc2cc(CCCCC[n+]3ccc(C)c(C)c3)c(CCCCC[n+]3ccc(C)c(C)c3)cc2CCCCC[n+]2ccc(C)c(C)c2)cc1C.[Br-].[Br-].[Br-].[Br-] | 0.5 ± 0.5 | 18 ± 10 | 36 ± 11 | – |
| Cc1cc[n+](CCCCCc2cc(CCCCC[n+]3ccc(C)cc3)c(CCCCC[n+]3ccc(C)cc3)cc2CCCCC[n+]2ccc(C)cc2)cc1.[Br-].[Br-].[Br-].[Br-] | 12 ± 8.3 | 8.0 ± 5.3 | 46 ± 5 | – |
| [Br-].[Br-].[Br-].[Br-].c1c(CCCCC[n+]2ccc3c(c2)CCCC3)c(CCCCC[n+]2ccc3c(c2)CCCC3)cc(CCCCC[n+]2ccc3c(c2)CCCC3)c1CCCCC[n+]1ccc2c(c1)CCCC2 | 0.9 ± 0.9 | 27 ± 15 | 27 ± 2 | 56 |
| Cc1cc[n+](CCCC#Cc2cc(C#CCCC[n+]3ccc(C)c(C)c3)c(C#CCCC[n+]3ccc(C)c(C)c3)cc2C#CCCC[n+]2ccc(C)c(C)c2)cc1C.[Br-].[Br-].[Br-].[Br-] | 9.8 ± 1.2 | 0.6 ± 0.6 | 17 ± 6 | – |
| [Br-].[Br-].[Br-].[Br-].c1ccc(Cc2ccc[n+](CCCCCc3cc(CCCCC[n+]4cccc(Cc5ccccc5)c4)c(CCCCC[n+]4cccc(Cc5ccccc5)c4)cc3CCCCC[n+]3cccc(Cc4ccccc4)c3)c2)cc1 | 13 ± 3.3 | 16 ± 8 | 54 ± 10 | 28 |
| CN1CCCC1c1ccc[n+](CCCC#Cc2cc(C#CCCC[n+]3cccc(C4CCCN4C)c3)c(C#CCCC[n+]3cccc(C4CCCN4C)c3)cc2C#CCCC[n+]2cccc(C3CCCN3C)c2)c1.[Br-].[Br-].[Br-].[Br-] (stereo not shown) | 38 ± 7.4 | 15 ± 2.0 | 31 ± 13 | – |
| [Br-].[Br-].[Br-].[Br-].c1ccc(-c2ccc[n+](CCCCCc3cc(CCCCC[n+]4cccc(-c5ccccc5)c4)c(CCCCC[n+]4cccc(-c5ccccc5)c4)cc3CCCCC[n+]3cccc(-c4ccccc4)c3)c2)cc1 | 6.6 ± 4.5 | 33 ± 17 | 19 ± 15 | – |
| OCCCc1ccc[n+](CCCCCc2cc(CCCCC[n+]3cccc(CCCO)c3)c(CCCCC[n+]3cccc(CCCO)c3)cc2CCCCC[n+]2cccc(CCCO)c2)c1.[Br-].[Br-].[Br-].[Br-] | 9.6 ± 5.2 | 20 ± 13 | 64 ± 15 | 3.38 |
